Legend:
cotton plants = experiment: Field test on cotton plants at boll opening: defoliation ratio and boll opening after foliar spray; assay type: in vivo; settings: for Defoliation ratio (%) Rep. 1 / Defoliation ratio (%) Rep. 2 / Defoliation ratio (%) Rep. 3: 20 g/ha, emulsifiable concentrate diluted with water containing 1% (v/v) COC, day 14 after the treatment; for Defoliation ratio (%) Rep. 1: replication 1 about 60% of open bolls; for Defoliation ratio (%) Rep. 2: replication 2 about 60 to 70% of open bolls; for Defoliation ratio (%) Rep. 3: replication 3 80 to 85% of open bolls; for cotton boll opening: field test, sprayed at the time of cotton boll opening
Protocol: The test results were evaluated according to the following criteria: Defoliation ratio (%)=(the number of dropped leaves/the total number of leaves examined)×100
Cotton seeds were planted and grown in the field. At the time of cotton boll opening, 2.5 parts of each of compounds […], 10 parts of Sorpol 3890 (Toho Chemical Industry Co., Ltd.), and 87.5 parts of SOLVESSO 200 (Exxon Mobile Chemical Company) were well mixed to give an emulsifiable concentrate for each compound, which was then diluted at a prescribed dose with water containing 1% (v/v) crop oil concentrate (COC), and the dilution was uniformly sprayed to the plants. Treatments were carried out with three replications. Replication 1 had about 60% of open bolls; replication 2 had about 60 to 70% of open bolls; replication 3 had 80 to 85% of open boils. The treated fields are each 4 m×6.4 m in area, and the cotton plants on day 14 after the treatment were examined for the defoliation ratio.

| melting point | Structure (SMILES) | Defoliation ratio (%) Rep. 1 (cotton plants) | Defoliation ratio (%) Rep. 2 (cotton plants) | Defoliation ratio (%) Rep. 3 (cotton plants) | cotton boll opening (cotton plants) |
| --- | --- | --- | --- | --- | --- |
|  | COC(=O)COc1ncccc1Oc1cc(-n2c(=O)cc(C(F)(F)F)n(C)c2=O)c(F)cc1Cl [Compound a-6, methyl [3-{2-chloro-4-fluoro-5-[3-methyl-2,6-dioxo-4-(trifluoromethyl)-1,2,3,6-tetrahydropyrimidin-1-yl]phenoxy}-2-pyridyloxy]acetate] | 80% | 75% | 85% | stimulated cotton boll opening |
|  | COC(=O)COc1ccccc1Oc1cc(-n2c(=O)cc(C(F)(F)F)n(C)c2=O)c(F)cc1Cl [Compound a-5, methyl [2-{2-chloro-4-fluoro-5-[3-methyl-2,6-dioxo-4-(trifluoromethyl)-1,2,3,6-tetrahydropyrimidin-1-yl]phenoxy}phenoxy]acetate] | 85% | 90% | 82% | stimulated cotton boll opening |
| 55.6 °C | Cn1c(C(F)(F)F)cc(=O)n(-c2cc(Oc3ccccc3OCC(=O)OC(C)(C)C)c(Cl)cc2F)c1=O [Compound a-121, t-butyl [2-{2-chloro-4-fluoro-5-[3-methyl-2,6-dioxo-4-(trifluoromethyl)-1,2,3,6-tetrahydropyrimidin-1-yl]phenoxy}phenoxy]acetate] |  |  |  |  |
